Measurements as given in paper PMC10288926 (Journal of Enzyme Inhibition and Medicinal Chemistry, 2023).
Read-outs that look alike come from different tables or passages of the source. Each block holds one compound with its values, some of them ahead of it.

Key:
[1] = tested on: HCC-78 cell line harbouring SLC34A2-ROS1 fusion; test: Antiproliferative MTT assay, HCC-78; format: cell-based, human; details: read-out: Cellular IC50 (μM) HCC-78
[2] = molecular target: Ba/F3 CD74-ROS1^WT cell (Homo sapiens, UniProt P04233+P08922); test: Antiproliferative CCK-8 assay, Ba/F3 CD74-ROS1^WT; format: cell-based; details: 72 h exposure, IC50, at least three independent experiments; for IC50: read-out: Ba/F3 cellular activities (nM) CD74-ROS1^WT
[3] = molecular target: Ba/F3 CD74-ROS1^L2026M cell (Homo sapiens, UniProt P04233+P08922, L2026M); test: Antiproliferative CCK-8 assay, Ba/F3 CD74-ROS1^L2026M; format: cell-based; details: read-out: Ba/F3 cellular activities (nM) CD74-ROS1^L2026M; 72 h exposure, IC50, at least three independent experiments
[4] = molecular target: Ba/F3 CD74-ROS1^G2032R cell (Homo sapiens, UniProt P04233+P08922, G2032R); test: Antiproliferative CCK-8 assay, Ba/F3 CD74-ROS1^G2032R; format: cell-based; details: for IC50: read-out: Ba/F3 cellular activities (nM) CD74-ROS1^G2032R, 72 h exposure, IC50, at least three independent experiments
[5] = molecular target: ROS1 (Homo sapiens, UniProt P08922); test: HTRF KinEASE-TK kinase inhibitory assay, ROS1; format: biochemical; details: for inhibition at 1 µM: read-out: ROS1 Inhibition (1μM); for ROS1 Inhibition (1μM): kinase inhibition % at 1 μM
[6] = molecular target: ALK^WT (Homo sapiens, UniProt Q9UM73); test: HTRF KinEASE-TK kinase inhibitory assay, ALK wild type; format: biochemical; details: for ALK Inhibition (1μM): kinase inhibition % at 1 μM
[7] = tested on: NCI-H3122 cell line harbouring EML4-ALK fusion; test: Antiproliferative MTT assay, NCI-H3122; format: cell-based, human; details: read-out: Cellular IC50 (μM) NCI-H3122
[8] = molecular target: ALK^G1202R (Homo sapiens, UniProt Q9UM73, G1202R); test: HTRF KinEASE-TK kinase inhibitory assay, ALK^G1202R; format: biochemical
[9] = molecular target: ALK^L1196M (Homo sapiens, UniProt Q9UM73, L1196M); test: HTRF KinEASE-TK kinase inhibitory assay, ALK^L1196M; format: biochemical
[10] = molecular target: Ba/F3 EML4-ALK^L1196M cell (Homo sapiens, UniProt Q9HC35+Q9UM73, L1196M); format: cell-based; details: read-out: Ba/F3 cellular activities (nM) EML4-ALK^L1196M; 72 h exposure, IC50, at least three independent experiments
[11] = molecular target: Ba/F3 EML4-ALK^WT cell (Homo sapiens, UniProt Q9HC35+Q9UM73); format: cell-based; details: read-out: Ba/F3 cellular activities (nM) EML4-ALK^WT; 72 h exposure, IC50, at least three independent experiments
[12] = molecular target: c-MET (Homo sapiens, UniProt P08581); test: HTRF kinase inhibitory assay, c-MET; format: biochemical; details: for c-MET Inhibition (1μM): kinase inhibition % at 1 μM
[13] = tested on: phosphorylation of ROS1 and ERK in CD74-ROS1^WT cell; test: Western blot of ROS1 and ERK phosphorylation, CD74-ROS1^WT Ba/F3 cells; format: cell-based
[14] = tested on: phosphorylation of ROS1 and ERK in CD74-ROS1^L2026M cell; test: Western blot of ROS1 and ERK phosphorylation, CD74-ROS1^L2026M Ba/F3 cells; format: cell-based
[15] = tested on: ROS1-G2032R; details: read-out: cellular IC50 ROS1-G2032R; cited from earlier work
[16] = tested on: ALK; details: read-out: enzymatic IC50 against ALK; cited from earlier work
[17] = tested on: HCC-78 cells; test: Apoptosis assay; format: cell-based, human
[18] = tested on: ROS1 phosphorylation in CD74-ROS1^G2032R cell; test: Western blot of ROS1 phosphorylation, CD74-ROS1^G2032R Ba/F3 cells; format: cell-based; details: up to 1000 nM
[19] = tested on: phosphorylation of ALK in EML4-ALK^L1196M cell; test: Western blot of phosphorylation, EML4-ALK^L1196M Ba/F3 cells; format: cell-based
[20] = tested on: NCI-H3122 cells; test: Apoptosis assay; format: cell-based, human; details: 48 h, vehicle 11.24%
[21] = read-out: ROS1 IC50, average of two independent experiments
[22] = MTT, 72 h, mean of at least three independent experiments
[23] = average of two independent experiments
[24] = read-out: Enzymatic activities (nM) ALK^G1202R, IC50, average of two independent experiments
[25] = read-out: Enzymatic activities (nM) ALK^L1196M, IC50, average of two independent experiments

IC50 ([1]; Homo sapiens, HCC78, 72 h): 4.6 ± 0.8 µM
IC50 [2]: 20.9 ± 1.7 nM
IC50 [3]: 168 ± 56.3 nM
IC50 [4]: 317 ± 92.1 nM
IC50 [5]: 37.4 nM
fold more potent than compound B03, ROS1 IC50 [5]: about 10 fold
inhibition at 1 µM [5]: 103%
IC50 [6]: 67.4 nM
fold more potent than compound B03, ALK IC50 [6]: ~4 fold
inhibition at 1 µM ([6]; read-out: ALK Inhibition (1μM)): 100%
IC50 ([7]; Homo sapiens, NCI-H3122, 72 h): 5.7 ± 0.6 µM
IC50 [8]: 195 nM
IC50 [9]: > 1000 nM
IC50 [10]: 1810 ± 270 nM
IC50 [11]: 681 ± 151 nM
inhibition at 1 µM ([12]; read-out: c-MET Inhibition (1μM)): 64%
Compound: C[C@@H](Oc1cc(-c2cnn(C)c2)cnc1N)c1ccccc1-c1ccccc1 [B08, (R)-3–(1-([1,1'-biphenyl]-2-yl)ethoxy)-5–(1-methyl-1H-pyrazol-4-yl)pyridin-2-amine]

IC50 ([1]; Homo sapiens, HCC78, 72 h): 4.5 ± 1.4 µM
inhibition at 1 µM [5]: 101%
Compound: C[C@@H](Oc1cc(-c2cnn(C3CCNCC3)c2)cnc1N)c1c(Cl)ccc(F)c1Cl [Crizotinib, reference compound]
phosphorylation of ROS1 and ERK, CD74-ROS1^WT cell [13]: attenuated phosphorylation of ROS1 and its key downstream molecule ERK in a dose-dependent manner
phosphorylation of ROS1 and ERK, CD74-ROS1^L2026M cell [14]: attenuated phosphorylation of ROS1 and its key downstream molecule ERK in a dose-dependent manner

Compound: C[C@H]1Oc2cc(cnc2N)-c2c(nn(C)c2C#N)CN(C)C(=O)c2ccc(F)cc21 [Lorlatinib]
IC50 [15]: 203 nM

Compound: C[C@@H](Oc1cc(-c2ccc3c(c2)NC(=O)C32CCN(C)CC2)cnc1N)c1c(Cl)ccc(F)c1Cl [SMU-B, reference compound]
IC50 [5, 21]: 1.48 nM
IC50 [16]: < 0.5 nM

Compound: (R)-5–(5-(1-([1,1'-biphenyl]-2-yl)ethoxy)-6-aminopyridin-3-yl)-1'-methylspiro[indoline-3,4'-piperidin]-2-one [C01]
percentage of apoptotic HCC-78 cell ([17]; 2.0 μM (IC50/2), 48 h, vehicle 10.7%): 15.9%
percentage of apoptotic HCC-78 cell ([17]; 7.8 μM (2 IC50), 48 h, vehicle 10.7%): 31.7%
percentage of apoptotic HCC-78 cell ([17]; C01 3.9 μM (1 IC50) vs Crizotinib 4.5 μM (1 IC50)): superior to that of Crizotinib treatment group
IC50 [1, 22]: 3.9 ± 0.5 µM
phosphorylation of ROS1 and ERK, CD74-ROS1^WT cell [13]: attenuated phosphorylation of ROS1 and its key downstream molecule ERK in a dose-dependent manner
Ba/F3 cellular activities (nM) CD74-ROS1^WT [2]: comparable to Crizotinib
IC50 [2]: 7.6 ± 0.6 nM
IC50 [3]: 33.1 ± 1.4 nM
fold more potent than Crizotinib, CD74-ROS1^G2032R cell ([4]; ratio of cellular IC50 to Crizotinib): about 30 fold
IC50 [4]: 42.3 nM
phosphorylation of ROS1 and ERK, CD74-ROS1^L2026M cell [14]: attenuated phosphorylation of ROS1 and its key downstream molecule ERK in a dose-dependent manner
ROS1 Inhibition (1μM) [5, 23]: 100%
IC50 [5, 21]: 4.7 nM
ROS1 phosphorylation, CD74-ROS1^G2032R cell [18]: significant inhibition of ROS1 phosphorylation occurred in a dose-dependent manner
ALK Inhibition (1μM) [6]: 101%
IC50 ([6]; read-out: ALK IC50): 25.6 nM
phosphorylation, EML4-ALK^L1196M cell [19]: persistent potency
IC50 [7, 22]: 3 ± 0.1 µM
fold potency superior to Crizotinib, ALK^G1202R enzyme ([8]; ratio of enzymatic IC50 to Crizotinib): 10 fold
IC50 [8, 24]: 49.1 nM
percentage of apoptotic NCI-H3122 cell ([20]; 1.5 μM (IC50/2)): 15.61%
percentage of apoptotic NCI-H3122 cell ([20]; 3.0 μM (1 IC50)): 29.47%
percentage of apoptotic NCI-H3122 cell ([20]; 6.0 μM (2 IC50)): 35.13%
IC50 [9, 25]: 404 nM
IC50 [10]: 120 ± 17.3 nM
IC50 [11]: 145 ± 36 nM
c-MET Inhibition (1μM) [12]: 70%

Compound: (R)-5–(6-amino-5–(1-(4'-fluoro-[1,1'-biphenyl]-2-yl)ethoxy)pyridin-3-yl)-1'-methylspiro[indoline-3,4'-piperidin]-2-one [C02]
IC50 [1, 22]: 4.4 ± 0.5 µM
Ba/F3 cellular activities (nM) CD74-ROS1^WT [2]: comparable to Crizotinib
IC50 [2]: 5.4 ± 1 nM
IC50 [3]: 21.3 ± 4.7 nM
IC50 [4]: 107 ± 12.6 nM
ROS1 Inhibition (1μM) ([5]; average of two independent experiments, 1 µM): 102%
IC50 [5, 21]: 4.6 nM
ALK Inhibition (1μM) ([6]; 1 µM): 98%
IC50 ([6]; read-out: ALK IC50): 30.1 nM
IC50 [7, 22]: 2.8 ± 0.9 µM
IC50 [8, 24]: 276 nM
IC50 [9, 25]: 643 nM
IC50 [10]: 148 ± 27.3 nM
IC50 [11]: 191 ± 51.8 nM
c-MET Inhibition (1μM) ([12]; 1 µM): 69%

Compound: (R)-5–(6-amino-5–(1-(4'-methoxy-[1,1'-biphenyl]-2-yl)ethoxy)pyridin-3-yl)-1'-methylspiro[indoline-3,4'-piperidin]-2-one [C03]
IC50 [1, 22]: 4.6 ± 0.23 µM
IC50 [2]: 18.3 ± 1.2 nM
IC50 [3]: 38.3 ± 5.9 nM
IC50 [4]: 94.4 ± 31.9 nM
ROS1 Inhibition (1μM) [5, 23]: 101%
IC50 [5, 21]: 11.6 nM
ALK Inhibition (1μM) [6]: 94%
IC50 ([6]; read-out: ALK IC50): 56.1 nM
IC50 [7, 22]: 1.9 ± 0.1 µM
IC50 [8, 24]: 492 nM
IC50 [10]: 185 ± 22.2 nM
IC50 [11]: 228 ± 47.3 nM
c-MET Inhibition (1μM) [12]: 63%
